We go through six compounds from publication PMC10154330, “Machine learning-driven multifunctional peptide engineering for sustained ocular drug delivery” (Nature Communications, 2023).

In this test the test system is melanin nanoparticles (mNPs). Nature of the test: In vitro melanin binding assay (binding capacity and Kd, RED device, HPLC). To be noted: binding capacity and dissociation constant of ocular drugs, melanin. Set-up: species or system Sepia officinalis. On the procedure:
The solutions (400 µL) were then mixed thoroughly with 400 µL of 1 mg/mL mNPs in pH 6.5 PBS solution and transferred to the inner reservoir of the rapid equilibrium dialysis (RED) device inserts (8 K MWCO). The outer reservoir was filled with 800 µL of pH 6.5 PBS solution. The samples were incubated on an orbital shaker with temperature control at 37 °C and 300 rpm for 48 h (n = 3). The solutions from outer reservoir (free drug) were than collected and transferred to an autosampler vial for HPLC analysis (Prominence LC2030, Shimadzu, Columbia, MD) with photodiode-array detection (PDA) system. […] The amount of bound drug was used to calculate the binding capacity (mol drug/mg melanin) and the dissociation constant (Kd) as previously described[20],[34].

The term Kd denotes the concentration at which binding is half-saturated. For `CCN(CC)CCCC(C)Nc1ccnc2cc(Cl)ccc12` (stereo not drawn) [Chloroquine], the “Binding Capacity (mole/mg melanin)” value amounted to 3.8e-7 mole/mg melanin and the Kd came to 76 µM.

In the case of `COCCc1ccc(OCC(O)CNC(C)C)cc1` (stereo not drawn) [Metoprolol], the “Binding Capacity (mole/mg melanin)” value is reported as 2.69E-08 mole/mg melanin and binding was characterised by a dissociation constant (Kd) of 495 µM.

Regarding `CCNCCNC(=O)c1c(C)[nH]c(/C=C2\C(=O)Nc3ccc(F)cc32)c1C` [N-Desethyl Sunitinib], the “Binding Capacity (mole/mg melanin)” value is 2.61e-6 mole/mg melanin and binding was put at a Kd of 2.13 µM.

In the case of `CC1(C)O[C@@H]2C[C@H]3[C@@H]4CCC5=CC(=O)C=C[C@]5(C)[C@@]4(F)[C@@H](O)C[C@]3(C)[C@]2(C(=O)CO)O1` [Triamcinolone Acetonide], the “Binding Capacity (mole/mg melanin)” value turned out to be 2.24E-08 mole/mg melanin and the dissociation constant (Kd) was determined as 12.5 µM.

Turning to `CC(C)(C)NC[C@H](O)COc1nsnc1N1CCOCC1` [Timolol], the “Binding Capacity (mole/mg melanin)” value was found to be 3.9e-8 mole/mg melanin and binding was put at a Kd of 120 µM.

Consider `CC12CC3CC(C)(C1)CC(N)(C3)C2` [Memantine], for which the “Binding Capacity (mole/mg melanin)” value was found to be 2.07e-7 mole/mg melanin and the Kd was 804 µM.
